Laboratory results as given in ChEMBL document CHEMBL1201862, “PubChem BioAssay data set” (2004).
The source made the active and inactive calls.

Legend:
Cytochrome P450 2D6 = Cytochrome P450 2D6 (Homo sapiens, UniProt P10635);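 further: CYP2D6 member of a cytochrome P450 panel assay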
Cytochrome P450 2C9 = Cytochrome P450 2C9 (Homo sapiens, UniProt P11712)
[1] = Luminescence Cell-Based Dose Response HTS to Identify Activators of Luciferase Translation or Activity in H4 […] Cells. [Related pubchem assays: 1829 (Project Summary), 1814 (Primary HTS)]; type: functional
H4 = assay: Luminescence Cell-Based Dose Response HTS to Identify Activators of 5'UTR Stem-Loop Driven Prion Protein mRNA Translation in H4 Neuroglioblastoma Cells. [Related pubchem assays: 1829 (Project Summary), 1814 (Primary HTS)]; type: functional; conditions: Homo sapiens
INS1 = assay: INS-1E survival protection against cytokine death – cell-based, luminescence, retest, dose response (AID 449756); type: functional; conditions: Rattus norvegicus;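 further: cell death triggered by IL-1 beta plus TNF-alpha plus IFN-gamma mixture; protective hits raise ATP signal compared with cytokine alone wells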
[2] = target: T1, Heat shock factor protein 1 (Mus musculus, UniProt P38532); assay: enhancement of HSF1-driven luciferase signal – cell-based, NIH3T3, luminescence, dose retest, confirmation (AID 435004); type: functional;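 further: stress induced by proteasome inhibitor MG132 added 30 min after compound; luciferase reporter driven by HSF1 response element in NIH3T3 cells; actives raise luminescence as potentiators of the MG132 stress response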
T1 sequence (P38532 whole entry): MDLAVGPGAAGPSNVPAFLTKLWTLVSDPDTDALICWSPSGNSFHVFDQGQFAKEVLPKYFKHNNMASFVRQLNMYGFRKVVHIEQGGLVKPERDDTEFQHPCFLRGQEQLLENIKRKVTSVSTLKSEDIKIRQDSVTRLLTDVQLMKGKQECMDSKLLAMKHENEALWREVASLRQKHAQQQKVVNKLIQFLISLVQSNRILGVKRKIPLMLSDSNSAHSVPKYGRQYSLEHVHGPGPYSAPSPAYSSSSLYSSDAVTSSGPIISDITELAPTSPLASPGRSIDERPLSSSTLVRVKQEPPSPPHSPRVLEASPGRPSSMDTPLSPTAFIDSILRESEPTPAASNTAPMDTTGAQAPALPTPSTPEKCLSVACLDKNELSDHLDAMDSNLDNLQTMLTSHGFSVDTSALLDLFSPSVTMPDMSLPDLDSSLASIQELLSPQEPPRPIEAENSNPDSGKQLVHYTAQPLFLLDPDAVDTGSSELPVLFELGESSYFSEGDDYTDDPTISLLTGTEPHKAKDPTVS

[3] = target: T2, Rac GTPase-activating protein 1 (Homo sapiens, UniProt Q9H0H5); assay: blockers of MgcRacGAP-driven Rac1 GTP hydrolysis – biochemical, ADP Hunter fluorescence, primary and confirmatory, confirmation (AID 624330); type: functional
T2 sequence (Q9H0H5 whole entry): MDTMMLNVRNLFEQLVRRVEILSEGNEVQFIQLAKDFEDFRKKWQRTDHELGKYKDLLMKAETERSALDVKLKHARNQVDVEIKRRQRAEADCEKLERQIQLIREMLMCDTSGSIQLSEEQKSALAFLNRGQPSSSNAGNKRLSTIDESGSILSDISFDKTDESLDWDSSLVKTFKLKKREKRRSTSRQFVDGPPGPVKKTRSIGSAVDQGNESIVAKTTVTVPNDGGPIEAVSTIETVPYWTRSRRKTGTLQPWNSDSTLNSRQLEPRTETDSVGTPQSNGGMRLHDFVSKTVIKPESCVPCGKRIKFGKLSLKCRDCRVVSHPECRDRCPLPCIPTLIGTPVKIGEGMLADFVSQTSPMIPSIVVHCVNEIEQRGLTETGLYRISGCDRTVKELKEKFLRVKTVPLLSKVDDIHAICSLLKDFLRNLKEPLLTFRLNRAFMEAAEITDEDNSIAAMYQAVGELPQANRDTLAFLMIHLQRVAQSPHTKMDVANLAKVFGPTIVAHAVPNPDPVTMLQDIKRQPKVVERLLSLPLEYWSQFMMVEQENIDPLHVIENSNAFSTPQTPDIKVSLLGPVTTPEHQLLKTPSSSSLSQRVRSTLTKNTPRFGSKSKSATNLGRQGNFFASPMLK

[4] = Luminescence Cell-Based Dose Retest to Confirm Inhibitors of Cancer Stem Cells. [Related pubchem assays (depositor defined):AID2717, AID2721]; type: functional; conditions: Homo sapiens
Cytochrome P450 2C19 = Cytochrome P450 2C19 (Homo sapiens, UniProt P33261); assay: Cytochrome panel assay with activity outcomes. Panel member name: p450-cyp2c19 Compounds with AC50 equal or less than 10 uM are considered active; type: functional; conditions: read-out: AC50
Chain of Cytochrome P450 2C19 (P33261 whole entry): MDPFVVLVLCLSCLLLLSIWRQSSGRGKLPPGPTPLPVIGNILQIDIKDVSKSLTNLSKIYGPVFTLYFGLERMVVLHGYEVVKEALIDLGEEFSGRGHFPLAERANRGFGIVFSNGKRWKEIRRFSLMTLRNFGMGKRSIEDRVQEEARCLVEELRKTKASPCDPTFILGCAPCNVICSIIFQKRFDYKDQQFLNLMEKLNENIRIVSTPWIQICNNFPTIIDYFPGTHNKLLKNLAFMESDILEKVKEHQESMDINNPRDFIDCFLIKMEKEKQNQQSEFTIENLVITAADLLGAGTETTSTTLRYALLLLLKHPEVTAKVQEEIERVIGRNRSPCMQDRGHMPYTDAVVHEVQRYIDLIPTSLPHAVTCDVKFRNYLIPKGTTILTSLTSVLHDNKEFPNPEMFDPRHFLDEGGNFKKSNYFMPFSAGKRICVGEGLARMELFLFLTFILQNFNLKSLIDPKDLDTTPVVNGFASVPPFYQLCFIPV

Chain of Cytochrome P450 2D6 (P10635 whole entry): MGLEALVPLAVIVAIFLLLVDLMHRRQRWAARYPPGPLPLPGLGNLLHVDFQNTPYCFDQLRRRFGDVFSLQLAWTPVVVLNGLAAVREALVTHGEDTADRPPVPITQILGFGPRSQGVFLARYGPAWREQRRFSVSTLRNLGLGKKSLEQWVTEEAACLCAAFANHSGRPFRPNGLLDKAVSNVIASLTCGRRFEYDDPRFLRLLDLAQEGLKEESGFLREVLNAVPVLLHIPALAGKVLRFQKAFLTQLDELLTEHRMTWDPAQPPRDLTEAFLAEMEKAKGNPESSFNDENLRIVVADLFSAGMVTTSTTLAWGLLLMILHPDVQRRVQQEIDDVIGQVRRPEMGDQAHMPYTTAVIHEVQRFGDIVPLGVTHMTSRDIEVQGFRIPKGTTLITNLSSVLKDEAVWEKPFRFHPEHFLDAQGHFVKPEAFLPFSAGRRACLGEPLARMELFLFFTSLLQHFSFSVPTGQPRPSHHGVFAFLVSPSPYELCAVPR
Chain of Cytochrome P450 2C9 (P11712 whole entry): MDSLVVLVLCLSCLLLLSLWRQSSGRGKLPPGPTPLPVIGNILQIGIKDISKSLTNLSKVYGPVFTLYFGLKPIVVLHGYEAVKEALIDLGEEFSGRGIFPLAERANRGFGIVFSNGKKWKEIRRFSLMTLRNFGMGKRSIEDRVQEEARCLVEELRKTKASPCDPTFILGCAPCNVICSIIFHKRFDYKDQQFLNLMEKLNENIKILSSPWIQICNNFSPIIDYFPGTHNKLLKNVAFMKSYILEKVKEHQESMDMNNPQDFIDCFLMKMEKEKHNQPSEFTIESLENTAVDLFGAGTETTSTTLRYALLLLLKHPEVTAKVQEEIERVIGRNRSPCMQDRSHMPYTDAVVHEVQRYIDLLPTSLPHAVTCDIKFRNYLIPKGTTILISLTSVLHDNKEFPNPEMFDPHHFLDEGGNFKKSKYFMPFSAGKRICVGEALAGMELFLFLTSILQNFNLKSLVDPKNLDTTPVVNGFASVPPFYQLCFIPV

## COCCn1c(=O)c(-c2ccc(Cl)cc2)nc2cnc(N(C)C)nc21
Cytochrome P450 2D6
  AC50: 0.0794 µM (inconclusive)

## COc1ccc(CNc2ccnc(-c3cccc(C#N)c3)n2)c(OC)c1
Cytochrome P450 2D6
  AC50: 12.6 µM (inconclusive)
Cytochrome P450 2C9
  AC50: 0.501 µM (inconclusive)

## Cc1cc(C(=O)CSc2nnnn2C)c(C)n1Cc1ccco1
[1]
  EC50: 5.73 µM (active)
H4
  EC50: > 120 µM (not active)

## CCc1ccc(C2CC(c3cccc(Cl)c3)n3nc(N)nc3N2)cc1 (stereo not drawn)
INS1
  AC50: > 120 µM (inactive)

## COc1cccc(-c2nc(N3CCN(c4ccccc4)CC3)c3ccccc3n2)c1O
[2]
  EC50: > 260 µM (inactive)

## CCCCOC(=O)CCCc1ccc([N+](=O)[O-])cc1[N+](=O)[O-]
[2]
  EC50: > 260 µM (inactive)

## Cc1onc(-c2ccccc2)c1C(=O)N=C(N)c1ccc(C(F)(F)F)cc1
[2]
  EC50: > 260 µM (inactive)

## O=C(OCc1ccccc1F)c1ccc2c(c1)OCCO2
[1]
  EC50: 1.38 µM (active)
H4
  EC50: 5.23 µM (active)

## Cc1noc(-c2ccc(C(F)(F)F)cc2)c1NC(=O)Nc1ccc(Cl)cc1
INS1
  AC50: 6.96 µM (active)

## N#CC1=C(S)N(c2ccccc2)C(c2ccc(-c3cccc(Cl)c3)o2)NC1=O (stereo not drawn)
[3]
  IC50: 181 µM (active)

## COc1ccc(C2Nc3ccccc3C(=O)N2c2ccc(C)cc2)cc1Cn1nnc2ccccc21 (stereo not drawn)
[1]
  EC50: 4.2 µM (active)
H4
  EC50: 50.7 µM (active)

## Cc1ccc(NC(=O)CN2CCN(C)CC2)cc1Br
[3]
  IC50: 98.5 µM (active)

## COc1ccc2[nH]cc(CCNc3cc(-c4cccnc4)ncn3)c2c1
Cytochrome P450 2D6
  AC50: 20 µM (inconclusive)

## COCCCn1c(C(=O)NC2CCCCC2C)cc2c(=O)n3cccc(C)c3nc21 (stereo not drawn)
[2]
  EC50: > 260 µM (inactive)

## CCCCCCc1cc2cc(C(=O)Nc3ccccc3)c(=O)oc2cc1O
[4]
  AC50: 0.257 µM (active)
INS1
  AC50: 3.15 µM (active)

## CN(Cc1nnc(-c2ccc(F)cc2)o1)c1ccccc1
[2]
  EC50: > 260 µM (inactive)

## CC(C)Cn1c(SCc2nc(O)c3ccccc3n2)nc2ccccc2c1=O
Cytochrome P450 2D6
  AC50: 3.98 µM (inconclusive)

## COc1ccccc1N1CCN(Cc2cccc(OC)c2O)CC1
[2]
  EC50: > 260 µM (inactive)

## COc1cccc(-c2nn(-c3ccccc3)cc2C(=O)n2nnc3ccccc32)c1
[2]
  EC50: 4.15 µM (active)

## CC1(C)CC2=Nc3cc4c(cc3C(c3ccc5c(c3)OCO5)C2=C(O)C1)OCO4 (stereo not drawn)
[2]
  EC50: 72 µM (active)

## Cc1[nH]c2ccccc2c1/C=C(\C#N)C(=O)NCC1CCCO1 (stereo not drawn)
[2]
  EC50: 53.1 µM (active)

## c1ccc(CN2CCN(CCOCCOc3ccc4c(c3)CCC4)CC2)cc1
[3]
  IC50: 53.6 µM (active)

## COC(=O)[C@@]1(Cc2ccc(OC)cc2)[C@H]2c3cc(C(=O)N(C)C)n(CCc4c[nH]c5ccc(O)cc45)c3C[C@H]2CN1C(=O)c1ccccc1
Cytochrome P450 2C19
  AC50: 25.1 µM (inconclusive)
Cytochrome P450 2D6
  AC50: 15.8 µM (inconclusive)

## O=C(NCCc1ccccc1)c1noc2c1CCc1ccccc1-2
Cytochrome P450 2D6
  AC50: 2.51 µM (inconclusive)
Cytochrome P450 2C9
  AC50: 7.08 µM (inconclusive)

## Sc1nnc2ccccn12
[3]
  IC50: 34 µM (active)

## COC(=O)[C@@H](Cc1ccccc1)N(Cc1ccccc1)S(=O)(=O)N(Cc1ccccc1)[C@H](Cc1ccccc1)C(=O)OC
INS1
  AC50: 3.91 µM (active)

## CCOC(=O)c1c(S(=O)(=O)NCC2CCN(CCc3cccs3)CC2)c(C)n(C)c1C
[2]
  EC50: > 260 µM (inactive)

## CCC1(c2ccccc2)NC(=O)N(CC(=O)NCc2ccccc2OC)C1=O (stereo not drawn)
[2]
  EC50: > 260 µM (inactive)

## CSc1ccccc1NC(=O)CN(C)C(C)C(=O)NCc1ccc2c(c1)OCO2 (stereo not drawn)
[3]
  IC50: 46.7 µM (active)

## COC(=O)N1C(c2ccccc2)C1c1ccccc1 (stereo not drawn)
[2]
  EC50: > 260 µM (inactive)

## NC(=O)c1ccccc1OC1CCC1
INS1
  AC50: > 260 µM (inactive)

## O=C(N/N=C/c1cc(Br)c(O)c(Br)c1O)c1ccc2c(c1)OCCO2
INS1
  AC50: 3.1 µM (active)

## COc1cc(/C=N/Nc2ccccn2)cc(OC)c1O
[3]
  IC50: 35 µM (active)

## CCOc1cc(/C=N/NC(=O)C(=O)N2CCCC2)ccc1O
[3]
  IC50: 56.3 µM (active)

## CC(=O)c1cccc(/N=C/c2c(O)oc3ccccc3c2=O)c1
[2]
  EC50: 2.8 µM (active)

## Cc1cc(NC(=O)c2sc3ccccc3c2O)no1
[3]
  IC50: 75.2 µM (active)
